One assay concerns HCT-116. Nature of the assay: Induction of molecular glue effect mediated DNMT1 degradation in human HCT-116 cells assessed as reduction in DNMT1 protein level by measuring maximal efficacy at 1 uM incubated for 24 hrs by Western blot analysis relative to control. It counts as cell-based.
For assay [1], the target named is DNA (cytosine-5)-methyltransferase 1 (Homo sapiens, UniProt P26358). As to the kind of experiment: Inhibition of human DNMT1 (350 to 1600 residues) extracted from Escherichia coli BL21 (DE3)-codon plus-RIL cells in presence of SAM and hemimethylated DNA.
Assay [2] can be described thus: Induction of molecular glue effect mediated DNMT1 degradation in human HCT-116 cells assessed as reduction in DNMT1 protein level incubated for 24 hrs by Western blot analysis. To be noted: HCT-116, 24 h. Type of assay: cell-based.

Where only a bound is given, the exact number is not on record here.

Chain of DNA (cytosine-5)-methyltransferase 1 (P26358 whole entry, the tested form may be a part): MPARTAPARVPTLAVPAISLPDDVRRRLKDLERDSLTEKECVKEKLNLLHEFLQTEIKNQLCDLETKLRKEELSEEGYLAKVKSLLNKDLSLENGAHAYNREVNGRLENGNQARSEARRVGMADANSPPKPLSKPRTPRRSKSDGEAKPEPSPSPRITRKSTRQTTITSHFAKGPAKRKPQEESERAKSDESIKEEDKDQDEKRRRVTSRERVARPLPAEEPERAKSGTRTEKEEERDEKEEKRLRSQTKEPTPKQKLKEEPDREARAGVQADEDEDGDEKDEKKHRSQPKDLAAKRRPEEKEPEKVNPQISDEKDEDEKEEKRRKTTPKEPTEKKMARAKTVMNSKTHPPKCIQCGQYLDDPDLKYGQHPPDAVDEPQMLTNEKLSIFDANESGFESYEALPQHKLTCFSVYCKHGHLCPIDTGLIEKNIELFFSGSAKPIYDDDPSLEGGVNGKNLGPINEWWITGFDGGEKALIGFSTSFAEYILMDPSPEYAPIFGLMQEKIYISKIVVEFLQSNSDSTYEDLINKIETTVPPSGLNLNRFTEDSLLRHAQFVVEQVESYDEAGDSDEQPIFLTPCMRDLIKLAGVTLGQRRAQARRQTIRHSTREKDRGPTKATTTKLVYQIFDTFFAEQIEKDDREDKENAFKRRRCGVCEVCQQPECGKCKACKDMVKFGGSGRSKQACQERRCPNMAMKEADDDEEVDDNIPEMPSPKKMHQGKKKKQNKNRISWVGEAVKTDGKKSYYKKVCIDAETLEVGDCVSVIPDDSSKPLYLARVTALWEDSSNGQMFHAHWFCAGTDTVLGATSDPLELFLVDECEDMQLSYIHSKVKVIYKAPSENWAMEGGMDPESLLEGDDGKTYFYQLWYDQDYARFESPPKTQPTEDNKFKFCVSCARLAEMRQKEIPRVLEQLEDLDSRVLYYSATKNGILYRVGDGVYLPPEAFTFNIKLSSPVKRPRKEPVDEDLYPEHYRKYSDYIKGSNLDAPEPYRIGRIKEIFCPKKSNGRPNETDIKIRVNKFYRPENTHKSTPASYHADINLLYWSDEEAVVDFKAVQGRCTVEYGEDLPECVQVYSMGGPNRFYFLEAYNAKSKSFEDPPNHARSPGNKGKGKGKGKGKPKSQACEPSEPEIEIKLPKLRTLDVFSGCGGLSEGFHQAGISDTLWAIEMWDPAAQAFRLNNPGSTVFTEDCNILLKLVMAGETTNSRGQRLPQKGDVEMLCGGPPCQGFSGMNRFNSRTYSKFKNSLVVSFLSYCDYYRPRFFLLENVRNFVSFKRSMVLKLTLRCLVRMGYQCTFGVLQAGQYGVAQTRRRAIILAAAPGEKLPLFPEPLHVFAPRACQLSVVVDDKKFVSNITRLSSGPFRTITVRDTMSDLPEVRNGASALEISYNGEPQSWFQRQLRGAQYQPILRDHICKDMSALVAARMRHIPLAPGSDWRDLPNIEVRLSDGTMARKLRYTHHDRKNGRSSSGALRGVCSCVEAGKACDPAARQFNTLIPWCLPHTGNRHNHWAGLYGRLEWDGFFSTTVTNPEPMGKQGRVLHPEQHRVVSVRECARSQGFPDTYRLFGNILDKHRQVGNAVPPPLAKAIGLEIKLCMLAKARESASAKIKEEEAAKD

What is called Emax is the maximal effect, on the per cent scale that the assay sets. A word on the IC50: it is the concentration at which inhibition is half-maximal. The DC50 is the midpoint of the concentration-degradation curve. `CCc1c(C#N)c(NCC(N)=O)nc(SC(C(N)=O)c2ccccc2)c1C#N` (stereo not drawn): in the assay with HCT-116, the Emax worked out at 32%. The IC50 in assay [1] is above 3 µM. The 50% degradation concentration (DC50) in assay [2] was above 1000 nM.
For `CCCNC(=O)C(Sc1nc(N2CCC(N)CC2)c(C#N)c(CC)c1C#N)c1ccccc1` (stereo not drawn), in the assay with HCT-116, the Emax is 13%. Besides, the DC50 in assay [2] is above 1000 nM.
Taken in the same sequence, the figures for `CCc1c(C#N)c(SC(C(N)=O)c2ccccc2)nc(N2CCC(NC(C)=O)CC2)c1C#N` (stereo not drawn) were 13% and above 1000 nM.
Regarding `CCc1c(C#N)c(SC(C(N)=O)c2ccccc2)nc(N2CCNC(=O)C2)c1C#N` (stereo not drawn), the Emax with HCT-116 turned out to be 65%. For the same molecule, the DC50 in assay [2] came to 534 nM.
Taken in the same sequence, the figures for `CCc1c(C#N)c(SC(C(N)=O)c2ccccc2)nc(N2CCN(C(=O)c3nccs3)CC2)c1C#N` (stereo not drawn) were 90% and 89 nM.
As for `CCc1c(C#N)c(SC(C(N)=O)c2ccccc2)nc(N2CCS(=O)(=O)CC2)c1C#N` (stereo not drawn), the Emax in the assay with HCT-116 amounted to 74%. Besides, the DC50 in assay [2] was 362 nM.
For `CCc1c(C#N)c(SC(C(N)=O)c2ccccc2)nc(N2CCN(C(=O)C(C)(C)C)CC2)c1C#N` (stereo not drawn), in that order: 88% and 63 nM.
Taken in the same sequence, the figures for `CCc1c(C#N)c(SC(C(N)=O)c2ccccc2)nc(N2CCN(C(=O)C3CCCCCC3)CC2)c1C#N` (stereo not drawn) were 87% and 175 nM.
Turning to `CCc1c(C#N)c(SC(C(N)=O)c2ccccc2)nc(N(C)CCNC(C)=O)c1C#N` (stereo not drawn), the Emax in the assay with HCT-116 is 56%. Further, the 50% degradation concentration (DC50) in assay [2] came out at 753 nM.
Taken in the same sequence, the figures for `CCc1c(C#N)c(SC(C(N)=O)c2ccccc2)nc(N2CCN(C(=O)c3ccc(Br)cc3)CC2)c1C#N` (stereo not drawn) were 79% and 563 nM.
Taken in the same sequence, the figures for `CCc1c(C#N)c(SC(C(N)=O)c2ccccc2)nc(N(C)CC(N)=O)c1C#N` (stereo not drawn) were 88% and 99 nM.
For `CCc1c(C#N)c(SC(C(N)=O)c2ccccc2)nc(N2CCN(C)C(=O)C2)c1C#N` (stereo not drawn), in that order: 87% and 190 nM.
In the case of `CCc1c(C#N)c(SC(C(N)=O)c2ccccc2)nc(N2CC3(CN(C(=O)C(C)(C)C)C3)C2)c1C#N` (stereo not drawn), in the assay on HCT-116, the Emax came to 43%. The DC50 in assay [2] came out at 946 nM.
Taken in the same sequence, the figures for `CCc1c(C#N)c(SC(C(=O)NC)c2ccccc2)nc(N2CCC(N)CC2)c1C#N` (stereo not drawn) were 82% and 111 nM.
As to `CCc1c(C#N)c(SC(C(N)=O)c2ccccc2)nc(N2CCN(C(=O)C34CC5CC(CC(C5)C3)C4)CC2)c1C#N` (stereo not drawn), the Emax with HCT-116 came to 80%. Besides, the 50% degradation concentration (DC50) in assay [2] amounted to 409 nM.
`CCc1c(C#N)c(SC(C(N)=O)c2ccccc2)nc(N2CCN(C(=O)c3cc4ccccc4s3)CC2)c1C#N` (stereo not drawn): in the assay with HCT-116, the Emax came to 74%. The DC50 in assay [2] turned out to be 714 nM.
Taken in the same sequence, the figures for `CCc1c(C#N)c(SC(C(N)=O)c2ccccc2)nc(N2CCN(C(=O)CC(C)C)CC2)c1C#N` (stereo not drawn) were 93% and 65 nM.
With `CCc1c(C#N)c(SC(C(N)=O)c2ccccc2)nc(N2CCC(N)C2)c1C#N` (stereo not drawn), the maximal effect (Emax) in the assay with HCT-116 was 87%. In assay [2], the DC50 is 92 nM.
For `CCc1c(C#N)c(SC(C(N)=O)c2ccccc2)nc(N2CCC(NC(=O)C(C)(C)C)CC2)c1C#N` (stereo not drawn), the maximal effect (Emax) in the assay with HCT-116 was 90%. The DC50 in assay [2] turned out to be 39 nM.
Taken in the same sequence, the figures for `CCc1c(C#N)c(SC(C(N)=O)c2ccccc2)nc(N2CCCNCC2)c1C#N` (stereo not drawn) were 87% and 119 nM.
On to `CCc1c(C#N)c(SC(C(N)=O)c2ccccc2)nc(N2CCN(C(C)=O)CC2)c1C#N` (stereo not drawn), for which the Emax in the assay on HCT-116 stood at 87%. Moreover, the DC50 in assay [2] was 107 nM.
For `CCc1c(C#N)c(SC(C(N)=O)c2ccccc2)nc(N(C)CCN)c1C#N` (stereo not drawn), in that order: 79% and 78 nM.
Turning to `CCc1c(C#N)c(SC(C(N)=O)c2ccccc2)nc(N2CCC(NC(=O)C34CC5CC(CC(C5)C3)C4)CC2)c1C#N` (stereo not drawn), in the assay with HCT-116, the Emax was 92%. Besides, the DC50 in assay [2] was 35 nM.
Taken in the same sequence, the figures for `CCc1c(C#N)c(SC(C(N)=O)c2ccccc2)nc(N2CCNCC2)c1C#N` (stereo not drawn) were 78% and 184 nM.
With `CCc1c(C#N)c(SC(C(N)=O)c2ccccc2)nc(N2CCN(C(=O)c3ccc(C(C)C)s3)CC2)c1C#N` (stereo not drawn), the Emax in the assay with HCT-116 came to 71%. In assay [2], the DC50 was found to be 405 nM.
Taken in the same sequence, the figures for `CCC(=O)N1CCN(c2nc(SC(C(N)=O)c3ccccc3)c(C#N)c(CC)c2C#N)CC1` (stereo not drawn) were 89% and 51 nM.
For `CCc1c(C#N)c(SC(C(N)=O)c2ccccc2)nc(N2CCN(C(=O)C3CNC3)CC2)c1C#N` (stereo not drawn), in that order: 56% and 820 nM.
Take `CCc1c(C#N)c(SC(C(N)=O)c2ccccc2)nc(N2CCNC(=O)CC2)c1C#N` (stereo not drawn): the Emax in the assay with HCT-116 stood at 58%. In addition, the DC50 in assay [2] was 819 nM.
For `CCc1c(C#N)c(SC(C(N)=O)c2ccccc2)nc(N2CCN(C)CC2)c1C#N` (stereo not drawn), in that order: 46% and above 1000 nM.
For `CCc1c(C#N)c(SC(C(N)=O)c2ccccc2)nc(N2CCC(=O)N(C)CC2)c1C#N` (stereo not drawn), in that order: 86% and 121 nM.
`CCc1c(C#N)c(S[C@@H](C(N)=O)c2ccccc2)nc(N(C)C)c1C#N`: the Emax with HCT-116 was determined as 89%.
As to `CCc1c(C#N)c(SC(C(N)=O)c2ccccc2)nc(N2CCC(N(C)C)CC2)c1C#N` (stereo not drawn), the maximum response (Emax) in the assay on HCT-116 was determined as 92%. Further, the 50% degradation concentration (DC50) in assay [2] stood at 35 nM.
For `CCc1c(C#N)c(SC(C(N)=O)c2ccccc2)nc(N2CCN(C(=O)c3ccco3)CC2)c1C#N` (stereo not drawn), in that order: 94% and 42 nM.
`CCc1c(C#N)c(SC(C(N)=O)c2ccccc2)nc(N2CCN(C(=O)c3cc[nH]n3)CC2)c1C#N` (stereo not drawn): in the assay on HCT-116, the Emax was found to be 89%. In addition, the 50% degradation concentration (DC50) in assay [2] amounted to 144 nM.

The values are drawn from ChEMBL document CHEMBL6121066, “Structure-Activity Relationship Studies of DNA Methyltransferase 1 Monovalent Degraders” (J Med Chem, 2025).
